Measurements published in BigSolDB 2.1.

O.O=C1NC(=O)C(=O)C(=O)N1
solubility (mole fraction)
Settings	293.15 K	298.15 K	303.15 K	308.15 K	313.15 K	318.15 K	323.15 K
in THF	0.046	0.0549	0.0638	0.0739	0.084	0.0954	0.107
in acetone	0.0128	0.0132	0.0136	0.014	0.0143	0.0146	0.015
in ethanol	0.0856	0.0962	0.107	0.119	0.131	0.143	0.155
in ethylene glycol	0.0113	0.0143	0.0172	0.0206	0.024	0.0283	0.0327
in methanol	0.105	0.117	0.129	0.142	0.155	0.168	0.181
in water	0.0377	0.0403	0.0429	0.0456	0.0482	0.051	0.0539
